Assay results: US6737383B1, “Herbicidal oxadiazolidines” (priority 1999, dated 2004)

Experiments:
bedstraw = experiment: Test B pre/postemergence bedstraw; assay type: in vivo, Galium aparine
Method in brief: (§1)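 Test chemicals in a non-phytotoxic solvent mixture with surfactant were sprayed preemergence onto planted seeds and postemergence onto plants 2 to 18 cm tall (1- to 4-leaf stage). After twelve to sixteen days in a greenhouse, injury was visually rated against untreated controls from 0 (no effect) to 10 (complete control).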

smallflower flatsedge = experiment: Test B flood test smallflower flatsedge; assay type: in vivo, Cyperus difformis
Method in brief: (§2)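 Plants were grown to the 2-leaf stage before treatment with test chemical, then held in a greenhouse for twelve to sixteen days. Injury was visually rated against untreated controls on a 0–10 scale, where 0 is no effect and 10 is complete control.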

corn = experiment: Test B pre/postemergence corn; assay type: in vivo, Zea mays
Method in brief: as §1

cocklebur = experiment: Test B pre/postemergence cocklebur; assay type: in vivo, Xanthium strumarium
Method in brief: as §1

giant foxtail = experiment: Test B pre/postemergence giant foxtail; assay type: in vivo, Setaria faberii
Method in brief: as §1

wild oat = experiment: Test B pre/postemergence wild oat; assay type: in vivo, Avena fatua
Method in brief: as §1

rice = experiment: Test B flood test rice; assay type: in vivo, Oryza sativa
Method in brief: as §2

velvetleaf = experiment: Test B pre/postemergence velvetleaf; assay type: in vivo, Abutilon theophrasti
Method in brief: as §1

blackgrass = experiment: Test B pre/postemergence blackgrass; assay type: in vivo, Alopecurus myosuroides
Method in brief: as §1

surinam grass = experiment: Test B pre/postemergence surinam grass; assay type: in vivo, Brachiaria decumbens
Method in brief: as §1

sugar beet = experiment: Test B pre/postemergence sugar beet; assay type: in vivo, Beta vulgaris
Method in brief: as §1

pigweed = experiment: Test B pre/postemergence pigweed; assay type: in vivo, Amaranthus retroflexus
Method in brief: as §1

purple nutsedge = experiment: Test B pre/postemergence purple nutsedge; assay type: in vivo, Cyperus rotundus
Method in brief: as §1

crabgrass = experiment: Test B pre/postemergence crabgrass; assay type: in vivo, Digitaria sanguinalis
Method in brief: as §1

bamyardgrass = experiment: Test B flood test barnyardgrass; assay type: in vivo, Echinochloa crus-galli
Method in brief: as §2

soybean = experiment: Test B pre/postemergence soybean; assay type: in vivo, Glycine max
Method in brief: as §1

[1] = Preemergence, Rate 62 g/ha, scale of 0 to 10 where 0 is no effect and 10 is complete control
[2] = Preemergence, Rate 250 g/ha, scale of 0 to 10 where 0 is no effect and 10 is complete control
[3] = Preemergence, Rate 500 g/ha, scale of 0 to 10 where 0 is no effect and 10 is complete control
[4] = Rate 62 g/ha, Postemergence, scale 0 to 10 (0 no effect, 10 complete control)
[5] = Rate 125 g/ha, Postemergence, scale of 0 to 10 where 0 is no effect and 10 is complete control
[6] = Rate 62 g/ha, headed Pre-emergence (flood test species), scale 0 to 10 (0 no effect, 10 complete control)
[7] = Rate 125 g/ha, Pre-emergence, flood test species, scale 0 to 10 where 0 is no effect and 10 is complete control
[8] = Rate 250 g/ha, Pre-emergence, flood-test species, scale 0 to 10, 0 is no effect, 10 is complete control
[9] = Rate 500 g/ha, Pre-emergence, flood test species, scale 0 to 10 (0 no effect, 10 complete control)
[10] = Rate 250 g/ha, Postemergence, scale of 0 to 10 where 0 is no effect and 10 is complete control
[11] = Rate 500 g/ha, Postemergence, scale 0 to 10, 0 no effect, 10 complete control

C=CCn1c(=O)on(C(=O)N(c2ccc(Cl)cc2)C(C)C2CC2)c1=O (centres unmarked) [Compound 325]
Bedstraw plant response rating (bedstraw; [1]): 0 | Bedstraw plant response rating (0 to 10 scale) (bedstraw; Preemergence, Rate 125 g/ha): 0 | Bedstraw plant response rating (bedstraw; [2]): 0 | Bedstraw plant response rating (bedstraw; [3]): 0 | Bedstraw plant response rating (bedstraw; [4]): 2 | Bedstraw plant response rating (bedstraw; [5]): 8 | S. Flatsedge plant response rating (smallflower flatsedge; [6]): 0 | S. Flatsedge plant response rating (smallflower flatsedge; [7]): 0 | S. Flatsedge plant response rating (smallflower flatsedge; [8]): 0 | S. Flatsedge plant response rating (smallflower flatsedge; [9]): 0 | Corn plant response rating (corn; [1]): 0 | Corn plant response rating (0 to 10 scale) (corn; Preemergence, Rate 125 g/ha): 0 | Corn plant response rating (corn; [2]): 0 | Corn plant response rating (corn; [3]): 0 | Corn plant response rating (corn; [4]): 0 | Corn plant response rating (corn; [5]): 0 | Plant response rating, Corn (corn; [10]): 0 | Plant response rating, Corn (corn; [11]): 0 | Cocklebur plant response rating (cocklebur; [1]): 0 | Cocklebur plant response rating (0 to 10 scale) (cocklebur; Preemergence, Rate 125 g/ha): 0 | Cocklebur plant response rating (cocklebur; [2]): 0 | Cocklebur plant response rating (cocklebur; [3]): 0 | Cocklebur plant response rating (cocklebur; [4]): 0 | Cocklebur plant response rating (cocklebur; [5]): 0 | Plant response rating, Cocklebur (cocklebur; [10]): 0 | Plant response rating, Cocklebur (cocklebur; [11]): 3 | Giant foxtail plant response rating (giant foxtail; [1]): 3 | Giant foxtail plant response rating (0 to 10 scale) (giant foxtail; Preemergence, Rate 125 g/ha): 7 | Giant foxtail plant response rating (giant foxtail; [2]): 8 | Giant foxtail plant response rating (giant foxtail; [3]): 10 | Giant foxtail plant response rating (giant foxtail; [4]): 0 | Giant foxtail plant response rating (giant foxtail; [5]): 0 | Plant response rating, Giant foxtail (giant foxtail; [10]): 0 | Plant response rating, Giant foxtail (giant foxtail; [11]): 0 | Wild oats plant response rating (wild oat; [1]): 0 | Wild oats plant response rating (0 to 10 scale) (wild oat; Preemergence, Rate 125 g/ha): 0 | Wild oats plant response rating (wild oat; [2]): 0 | Wild oats plant response rating (wild oat; [3]): 2 | Wild oats plant response rating (wild oat; [4]): 0 | Wild oats plant response rating (wild oat; [5]): 0 | Plant response rating, Wild oats (wild oat; [10]): 0 | Plant response rating, Wild oats (wild oat; [11]): 4 | Rice plant response rating (rice; [6]): 0 | Rice plant response rating (rice; [7]): 0 | Rice plant response rating (rice; [8]): 0 | Rice plant response rating (rice; [9]): 0 | Velvetleaf plant response rating (velvetleaf; [1]): 0 | Velvetleaf plant response rating (0 to 10 scale) (velvetleaf; Preemergence, Rate 125 g/ha): 0 | Velvetleaf plant response rating (velvetleaf; [2]): 0 | Velvetleaf plant response rating (velvetleaf; [3]): 0 | Velvetleaf plant response rating (velvetleaf; [4]): 0 | Velvetleaf plant response rating (velvetleaf; [5]): 0 | Plant response rating, Velvetleaf (velvetleaf; [10]): 0 | Plant response rating, Velvetleaf (velvetleaf; [11]): 2 | Blackgrass plant response rating (blackgrass; [1]): 0 | Blackgrass plant response rating (0 to 10 scale) (blackgrass; Preemergence, Rate 125 g/ha): 1 | Blackgrass plant response rating (blackgrass; [2]): 2 | Blackgrass plant response rating (blackgrass; [3]): 7 | Blackgrass plant response rating (blackgrass; [4]): 0 | Blackgrass plant response rating (blackgrass; [5]): 0 | Plant response rating, Blackgrass (blackgrass; [10]): 3 | Plant response rating, Blackgrass (blackgrass; [11]): 7 | B. signalgrass plant response rating (surinam grass; [1]): 0 | B. signalgrass plant response rating (0 to 10 scale, 0 is no effect, 10 is complete control) (surinam grass; Preemergence, Rate 125 g/ha): 0 | B. signalgrass plant response rating (surinam grass; [2]): 0 | B. signalgrass plant response rating (surinam grass; [3]): 0 | B. signalgrass plant response rating (surinam grass; [4]): 0 | B. signalgrass plant response rating (surinam grass; [5]): 0 | Plant response rating, B. signalgrass (surinam grass; [10]): 0 | Plant response rating, B. signalgrass (surinam grass; [11]): 2 | Sugarbeets plant response rating (sugar beet; [1]): 0 | Sugarbeets plant response rating (0 to 10 scale) (sugar beet; Preemergence, Rate 125 g/ha): 0 | Sugarbeets plant response rating (sugar beet; [2]): 0 | Sugarbeets plant response rating (sugar beet; [3]): 0 | Sugarbeets plant response rating (sugar beet; [4]): 0 | Sugarbeets plant response rating (sugar beet; [5]): 0 | Plant response rating, Sugarbeets (sugar beet; [10]): 0 | Plant response rating, Sugarbeets (sugar beet; [11]): 0 | Redroot pigweed plant response rating (pigweed; [1]): 0 | Redroot pigweed plant response rating (0 to 10 scale) (pigweed; Preemergence, Rate 125 g/ha): 0 | Redroot pigweed plant response rating (pigweed; [2]): 0 | Redroot pigweed plant response rating (pigweed; [3]): 0 | Redroot pigweed plant response rating (pigweed; [4]): 0 | Redroot pigweed plant response rating (pigweed; [5]): 0 | Plant response rating, Redroot pigweed (pigweed; [10]): 4 | Plant response rating, Redroot pigweed (pigweed; [11]): 7 | Nutsedge plant response rating (purple nutsedge; [1]): 0 | Nutsedge plant response rating (0 to 10 scale) (purple nutsedge; Preemergence, Rate 125 g/ha): 0 | Nutsedge plant response rating (purple nutsedge; [2]): 0 | Nutsedge plant response rating (purple nutsedge; [4]): 0 | Nutsedge plant response rating (purple nutsedge; [5]): 0 | Plant response rating, Nutsedge (purple nutsedge; [10]): 0 | Plant response rating, Nutsedge (purple nutsedge; [11]): 0 | Crabgrass plant response rating (crabgrass; [1]): 0 | Crabgrass plant response rating (0 to 10 scale) (crabgrass; Preemergence, Rate 125 g/ha): 0 | Crabgrass plant response rating (crabgrass; [2]): 1 | Crabgrass plant response rating (crabgrass; [3]): 2 | Crabgrass plant response rating (crabgrass; [4]): 0 | Crabgrass plant response rating (crabgrass; [5]): 0 | Plant response rating, Crabgrass (crabgrass; [10]): 0 | Plant response rating, Crabgrass (crabgrass; [11]): 0 | Barnyardgrass plant response rating (bamyardgrass; [6]): 0 | Barnyardgrass plant response rating (bamyardgrass; [7]): 0 | Barnyardgrass plant response rating (bamyardgrass; [8]): 0 | Barnyardgrass plant response rating (bamyardgrass; [9]): 0 | Soybean plant response rating (soybean; [1]): 0 | Soybean plant response rating (0 to 10 scale) (soybean; Preemergence, Rate 125 g/ha): 0 | Soybean plant response rating (soybean; [2]): 0 | Soybean plant response rating (soybean; [3]): 0 | Soybean plant response rating (soybean; [4]): 2 | Soybean plant response rating (soybean; [5]): 2 | Plant response rating, Soybean (soybean; [10]): 1 | Plant response rating, Soybean (soybean; [11]): 3
